Test results published in ChEMBL document CHEMBL1649585, “Role of the Mycobacterium tuberculosis P55 efflux pump in intrinsic drug resistance, oxidative stress responses, and growth” (2009).

Columns and labels:
Assay type in all cases: functional
[1] = test system: Mycobacterium tuberculosis; assay: Upregulation of p27 gene expression in Mycobacterium tuberculosis by microarray
[2] = test system: Mycobacterium tuberculosis; assay: Upregulation of p55 gene expression Mycobacterium tuberculosis by microarray
[3] = test system: Mycobacterium tuberculosis; assay: Downregulation of p55 gene expression Mycobacterium tuberculosis by microarray
[4] = test system: Mycobacterium tuberculosis; assay: Downregulation of p27 gene expression Mycobacterium tuberculosis by microarray

Measured: fold change (FC)

CSc1ccc2c(c1)N(CCC1CCCCN1C)c1ccccc1S2 (configuration not stated) [THIORIDAZINE]
>=2: all assays above

O=[N+]([O-])c1cn2c(n1)OC[C@@H](OCc1ccc(OC(F)(F)F)cc1)C2 [PRETOMANID]
>=2: all assays above

CC(C)/N=c1\cc2n(-c3ccc(Cl)cc3)c3ccccc3nc-2cc1Nc1ccc(Cl)cc1 [CLOFAZIMINE]
>=2: all assays above

CC(C)[C@@H]1NC(=O)[C@H](C)OC(=O)[C@@H](C(C)C)NC(=O)[C@@H](C(C)C)OC(=O)[C@H](C(C)C)NC(=O)[C@H](C)OC(=O)[C@@H](C(C)C)NC(=O)[C@@H](C(C)C)OC(=O)[C@H](C(C)C)NC(=O)[C@H](C)OC(=O)[C@@H](C(C)C)NC(=O)[C@@H](C(C)C)OC1=O [VALINOMYCIN]
>=2: all assays above

CC1=CC(=O)c2ccccc2C1=O [MENADIONE]
>=2: all assays above

CO[C@@H]1[C@@H](OC(N)=O)[C@@H](O)[C@H](Oc2ccc3c(O)c(NC(=O)c4ccc(O)c(CC=C(C)C)c4)c(=O)oc3c2C)OC1(C)C [NOVOBIOCIN]
>=2: all assays above

CN(C)CCCN1c2ccccc2Sc2ccc(Cl)cc21 [CHLORPROMAZINE]
>=2: all assays above

Oc1cc(Cl)ccc1Oc1ccc(Cl)cc1Cl [TRICLOSAN]
>=2: all assays above
